# Assay results published in the supplement of paper PMC10307832.
# How the values were obtained:
# Test in all cases: relative viability (nuclei count vs DMSO), 5 days (fraction); higher = more cells survive
# [1] = compound: COc1nc(N)nc2c1ncn2[C@@H]1O[C@H](CO)[C@@H](O)[C@@H]1O [Nelarabine] + C[C@]1(O)C[C@@H](c2nc(-c3ccc4ccc(-c5ccccc5)nc4c3)c3c(N)nccn32)C1 [Linsitinib] (partner 1 µM)
# Procedure, shortened: (§1)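 Each reported value is a median over duplicate plates. It expresses relative viability: treated-well nuclei count divided by vehicle-well nuclei count. Lung cancer cell lines in 1536-well plates were dosed by pin tool a day after seeding, alone with one drug or with a fixed anchor-drug dose plus five library-drug doses (not always all listed) in √10 steps, and nuclei were counted after 5 days.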
# [2] = compound: C=CCn1c(=O)c2cnc(Nc3ccc(N4CCN(C)CC4)cc3)nc2n1-c1cccc(C(C)(C)O)n1 [Adavosertib] + Nc1ncn([C@H]2C[C@H](O)[C@@H](CO)O2)c(=O)n1 [Decitabine] (partner 2 µM)
# Procedure, shortened: as §1
# [3] = compound: C=CCn1c(=O)c2cnc(Nc3ccc(N4CCN(C)CC4)cc3)nc2n1-c1cccc(C(C)(C)O)n1 [Adavosertib] + N=C(N)NC(=N)NCCc1ccccc1 [Phenformin] (partner 250 µM)
# Procedure, shortened: as §1
# [4] = compound: C=CCn1c(=O)c2cnc(Nc3ccc(N4CCN(C)CC4)cc3)nc2n1-c1cccc(C(C)(C)O)n1 [Adavosertib] + CCNC(=O)c1noc(-c2cc(C(C)C)c(O)cc2O)c1-c1ccc(CN2CCOCC2)cc1 [Luminespib] (partner 0.01 µM)
# Procedure, shortened: as §1
Cell Line,relative viability ([1]; first compound 0.01 µM),relative viability ([1]; first compound 0.03162 µM),relative viability ([1]; first compound 0.1 µM),relative viability ([1]; first compound 0.3162 µM),relative viability ([1]; first compound 1 µM),relative viability ([2]; first compound 0.01 µM),relative viability ([2]; first compound 0.03162 µM),relative viability ([2]; first compound 0.1 µM),relative viability ([2]; first compound 0.3162 µM),relative viability ([3]; first compound 0.01 µM),relative viability ([3]; first compound 0.03162 µM),relative viability ([3]; first compound 0.1 µM),relative viability ([3]; first compound 0.3162 µM),relative viability ([4]; first compound 0.01 µM),relative viability ([4]; first compound 0.03162 µM),relative viability ([4]; first compound 0.1 µM),relative viability ([4]; first compound 0.3162 µM)
NCI-H1915,1.15,1.08,1.06,1.1,1.1,0.262,0.251,0.272,0.282,0.364,0.367,0.388,0.365,0.912,0.729,0.752,0.617
NCI-H1395,1.1,1.15,1.17,0.974,1.2,0.702,0.754,0.781,0.62,0.435,0.429,0.421,0.471,0.836,0.741,0.734,0.424
LOU-NH91,1.02,0.953,0.865,0.886,0.947,0.819,0.821,0.798,0.852,0.661,0.743,0.687,0.725,0.34,0.375,0.357,0.32
SW 1573,0.82,0.646,0.848,0.799,0.73,0.503,0.535,0.663,0.291,0.384,0.564,0.408,0.324,0.177,0.226,0.192,0.198
NCI-H23,0.749,0.671,0.613,0.623,0.622,0.299,0.31,0.255,0.246,0.732,0.759,0.838,0.585,0.217,0.252,0.233,0.21
NCI-H1993,0.803,0.7,0.834,0.662,0.668,0.58,0.593,0.617,0.585,0.527,0.537,0.475,0.589,0.912,0.904,0.836,1.06
HARA,1.29,0.814,0.771,1.18,0.941,0.486,0.554,0.473,0.423,0.513,0.476,0.548,0.361,0.781,0.795,0.845,0.366
HCC-366,1.21,0.427,0.551,0.785,0.769,0.369,0.35,0.377,0.277,0.622,0.678,0.626,0.674,–,–,–,–
COR-L 105,0.863,1.03,0.95,1.04,0.984,0.691,0.6,0.618,0.651,0.558,0.443,0.467,0.409,1.03,0.698,0.962,0.774
HCC-44,0.712,0.678,0.678,0.657,0.691,0.935,0.935,0.975,1,0.255,0.237,0.192,0.181,0.982,1.01,0.968,1.3
LXF-289,1.01,0.935,0.969,0.997,0.949,0.362,0.411,0.399,0.358,0.528,0.553,0.527,0.561,0.598,0.651,0.654,0.783
EBC-1,0.99,1.13,0.929,0.91,0.939,–,–,–,–,–,–,–,–,–,–,–,–
NCI-H1563,1.23,1.22,1.18,1.19,1.18,–,–,–,–,0.692,0.603,0.667,0.642,0.562,0.544,0.507,0.473
IA-LM,0.847,0.838,0.68,0.737,0.667,–,–,–,–,–,–,–,–,–,–,–,–
NCI-H1299,1.19,1.02,1.05,1.04,0.963,–,–,–,–,–,–,–,–,–,–,–,–
NCI-H1703,1.05,0.66,0.666,0.541,0.834,–,–,–,–,–,–,–,–,–,–,–,–
Calu-6,1.22,1.07,0.897,0.997,1,–,–,–,–,–,–,–,–,–,–,–,–
NCI-H522,–,–,–,–,–,0.691,0.692,0.776,0.745,0.679,0.57,0.691,0.676,–,1.04,1.24,1.2
NCI-H1650,–,–,–,–,–,0.449,0.415,0.564,0.27,0.361,0.392,0.445,0.205,0.2,0.207,0.213,0.145
NCI-H2228,0.519,0.832,–,0.63,0.898,–,–,–,–,0.252,0.27,0.257,0.243,0.186,0.159,0.132,0.134
CAL-12T,0.857,0.931,0.809,0.778,0.832,–,–,–,–,0.576,0.545,0.573,0.336,0.312,0.102,0.601,0.23
NCI-H1623,–,–,–,–,–,–,–,–,–,0.553,0.629,0.563,0.652,0.354,0.492,0.453,0.468
NCI-H2342,–,–,–,–,–,0.72,0.768,0.755,0.932,0.569,0.587,0.571,0.572,0.636,0.676,0.788,0.784
A549,0.714,0.622,0.585,0.523,0.642,0.28,0.257,0.298,0.291,0.218,0.229,0.14,0.173,–,–,–,–
ChaGo-K-1,–,–,–,–,–,0.554,0.518,0.469,0.534,0.469,0.506,0.484,0.457,0.502,0.683,0.489,0.719
